Results: US20220356174A1, “PYRIDIN-2-ONE COMPOUNDS USEFUL AS SMARCA2 ANTAGONISTS” (Epizyme, Inc., priority 2018, published 2022)
Read-outs that look alike come from different tables or passages of the source.

Key:
[1] = target: FL-SMARCA4 (Homo sapiens, UniProt P51532); experiment: SMARCA4 ATPase activity assay (ADP-Glo, chicken mononucleosome substrate)
[2] = target: T1, FL-SMARCA2 (full-length human SMARCA2 isoform 1) (Homo sapiens, UniProt P51531); experiment: SMARCA2 ATPase activity assay (ADP-Glo, chicken mononucleosome substrate); type: biochemical; conditions: ATP 250 uM
T1 construct: FLAG tag (YKDDDDK) (C); made in house; host or cells: Sf21 insect cells (baculovirus, pFastBacI)

[3] = FL-SMARCA4 IC50, Table 3.2, ATPase assay, enzyme 5 nM, ATP 250 uM, chicken mononucleosome 10 nM, 30 min preincubation
[4] = Table 3.1, ATPase assay, enzyme 5 nM, chicken mononucleosome 10 nM, 30 min preincubation
[5] = FL-SMARCA4 IC>50, Table 3c.2, ATPase assay, enzyme 5 nM, ATP 250 uM, chicken mononucleosome 10 nM, 30 min preincubation
[6] = Table 3c.1, ATPase assay, enzyme 5 nM, chicken mononucleosome 10 nM, 30 min preincubation
[7] = FL-SMARCA4 IC50, Table 3a.2, SMARCA4 5 nM, ATP 250 uM, mononucleosome 10 nM
[8] = Table 3a.1, SMARCA2 5 nM, mononucleosome 10 nM
[9] = FL-SMARCA4 IC50, Table 3b.2, SMARCA4 5 nM, ATP 250 uM, mononucleosome 10 nM
[10] = Table 3b.1, SMARCA2 5 nM, mononucleosome 10 nM
[11] = Table 3d.1, ATPase assay, enzyme 5 nM, chicken mononucleosome 10 nM, 30 min preincubation, read-out: FL-SMARCA2 IC>50

FL-SMARCA4, sequence (P51532 whole entry, canonical isoform): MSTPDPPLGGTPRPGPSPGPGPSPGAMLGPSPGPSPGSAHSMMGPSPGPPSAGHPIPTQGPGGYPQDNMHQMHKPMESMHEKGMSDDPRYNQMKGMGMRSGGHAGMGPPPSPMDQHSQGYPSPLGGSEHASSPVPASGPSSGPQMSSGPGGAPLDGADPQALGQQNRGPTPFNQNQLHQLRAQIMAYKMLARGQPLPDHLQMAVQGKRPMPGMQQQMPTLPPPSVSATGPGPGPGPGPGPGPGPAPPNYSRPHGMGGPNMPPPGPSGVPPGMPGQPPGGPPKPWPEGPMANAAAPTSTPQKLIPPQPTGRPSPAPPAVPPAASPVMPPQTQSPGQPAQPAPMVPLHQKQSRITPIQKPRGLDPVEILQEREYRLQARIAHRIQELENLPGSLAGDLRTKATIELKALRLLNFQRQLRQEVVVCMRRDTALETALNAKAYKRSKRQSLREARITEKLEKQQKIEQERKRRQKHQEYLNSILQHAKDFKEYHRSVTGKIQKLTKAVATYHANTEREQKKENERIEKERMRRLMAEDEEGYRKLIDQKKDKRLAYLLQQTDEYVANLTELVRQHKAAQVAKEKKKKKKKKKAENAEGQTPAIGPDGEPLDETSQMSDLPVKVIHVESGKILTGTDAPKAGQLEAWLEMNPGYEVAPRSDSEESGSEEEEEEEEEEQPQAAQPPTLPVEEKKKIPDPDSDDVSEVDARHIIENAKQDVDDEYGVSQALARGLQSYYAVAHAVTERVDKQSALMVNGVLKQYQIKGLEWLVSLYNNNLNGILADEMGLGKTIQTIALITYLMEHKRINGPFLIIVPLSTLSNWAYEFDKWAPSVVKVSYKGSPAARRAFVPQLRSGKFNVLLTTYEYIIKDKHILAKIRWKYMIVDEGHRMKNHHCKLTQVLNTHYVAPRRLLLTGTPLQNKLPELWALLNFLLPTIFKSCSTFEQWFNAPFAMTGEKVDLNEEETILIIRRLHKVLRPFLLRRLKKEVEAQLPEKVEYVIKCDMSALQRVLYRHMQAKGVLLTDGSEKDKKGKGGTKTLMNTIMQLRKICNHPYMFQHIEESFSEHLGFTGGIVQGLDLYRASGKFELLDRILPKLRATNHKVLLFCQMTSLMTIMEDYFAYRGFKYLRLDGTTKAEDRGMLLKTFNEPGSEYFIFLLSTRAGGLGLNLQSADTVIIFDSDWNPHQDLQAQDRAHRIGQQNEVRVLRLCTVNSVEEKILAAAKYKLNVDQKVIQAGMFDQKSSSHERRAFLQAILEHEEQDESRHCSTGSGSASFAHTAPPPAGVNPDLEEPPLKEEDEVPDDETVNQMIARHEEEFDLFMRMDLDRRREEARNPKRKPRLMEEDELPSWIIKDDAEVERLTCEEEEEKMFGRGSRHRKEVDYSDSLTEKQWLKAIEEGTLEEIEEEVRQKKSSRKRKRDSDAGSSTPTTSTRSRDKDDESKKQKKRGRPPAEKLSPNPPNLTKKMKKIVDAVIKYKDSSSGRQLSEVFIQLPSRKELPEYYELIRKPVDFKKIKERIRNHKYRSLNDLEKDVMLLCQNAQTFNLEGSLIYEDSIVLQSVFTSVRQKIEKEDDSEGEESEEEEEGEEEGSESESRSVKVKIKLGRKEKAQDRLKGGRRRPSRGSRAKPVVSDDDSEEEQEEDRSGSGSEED
T1 sequence (P51531 with tags, fused parts or gaps): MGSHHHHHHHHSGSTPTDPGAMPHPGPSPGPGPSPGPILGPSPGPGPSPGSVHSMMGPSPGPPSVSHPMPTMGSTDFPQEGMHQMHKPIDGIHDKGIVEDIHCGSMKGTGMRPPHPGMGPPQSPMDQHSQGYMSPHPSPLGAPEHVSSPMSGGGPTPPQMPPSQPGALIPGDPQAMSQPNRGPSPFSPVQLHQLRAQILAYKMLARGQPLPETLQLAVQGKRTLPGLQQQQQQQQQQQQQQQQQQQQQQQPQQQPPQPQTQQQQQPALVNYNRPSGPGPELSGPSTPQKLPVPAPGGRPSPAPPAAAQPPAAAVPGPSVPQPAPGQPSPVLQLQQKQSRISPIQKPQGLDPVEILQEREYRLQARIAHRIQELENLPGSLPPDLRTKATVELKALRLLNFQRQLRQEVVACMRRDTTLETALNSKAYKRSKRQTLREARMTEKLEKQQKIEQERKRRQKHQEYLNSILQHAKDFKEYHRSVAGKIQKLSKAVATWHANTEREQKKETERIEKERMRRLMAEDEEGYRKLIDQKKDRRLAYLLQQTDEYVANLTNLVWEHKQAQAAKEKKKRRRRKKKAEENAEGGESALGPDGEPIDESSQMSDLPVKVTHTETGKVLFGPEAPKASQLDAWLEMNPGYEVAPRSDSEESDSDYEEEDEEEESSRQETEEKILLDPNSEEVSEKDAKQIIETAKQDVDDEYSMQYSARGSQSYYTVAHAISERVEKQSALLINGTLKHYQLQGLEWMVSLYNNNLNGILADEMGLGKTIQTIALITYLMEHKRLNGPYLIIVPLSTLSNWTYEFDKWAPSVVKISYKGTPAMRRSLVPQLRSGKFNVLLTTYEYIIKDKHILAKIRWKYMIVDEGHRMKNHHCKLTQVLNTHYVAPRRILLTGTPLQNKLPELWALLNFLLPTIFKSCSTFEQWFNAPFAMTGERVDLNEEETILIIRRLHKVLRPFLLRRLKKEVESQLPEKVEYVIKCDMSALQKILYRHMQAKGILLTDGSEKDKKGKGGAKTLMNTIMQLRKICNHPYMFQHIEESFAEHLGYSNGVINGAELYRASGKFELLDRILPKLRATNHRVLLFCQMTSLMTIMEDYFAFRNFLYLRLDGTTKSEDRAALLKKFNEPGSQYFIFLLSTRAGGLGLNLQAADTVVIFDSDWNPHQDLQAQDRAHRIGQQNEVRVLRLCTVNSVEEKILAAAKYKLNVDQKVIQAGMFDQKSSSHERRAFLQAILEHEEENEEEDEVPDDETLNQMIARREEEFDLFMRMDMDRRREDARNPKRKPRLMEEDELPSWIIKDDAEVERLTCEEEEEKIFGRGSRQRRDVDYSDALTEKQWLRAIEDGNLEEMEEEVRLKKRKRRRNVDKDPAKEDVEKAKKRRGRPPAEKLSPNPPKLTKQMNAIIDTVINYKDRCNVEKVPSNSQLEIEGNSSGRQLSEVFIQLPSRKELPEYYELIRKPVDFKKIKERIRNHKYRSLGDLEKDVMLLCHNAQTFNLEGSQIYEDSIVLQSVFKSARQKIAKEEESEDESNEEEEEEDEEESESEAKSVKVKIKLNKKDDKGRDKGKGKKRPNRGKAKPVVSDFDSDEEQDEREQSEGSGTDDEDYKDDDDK

Row | IC50 [1, 3] [µM] | IC50 [2, 4] [µM] | Structure (SMILES) | further results
1 | > 50 | > 50 | CCn1cc(NC(=O)c2cnc(NC3CCCC3)s2)ccc1=O [Compound 216] | 
2 |  |  | O=C(Nc1cc(F)c(=O)n(CC(F)F)c1)c1cc(C#CC2CNC2)c(Cl)s1 [Compound 9c] | IC50 [1, 5]: 7.82 µM; IC50 [2, 6]: 2.88 µM
3 | > 50 | 24 | C/C=C/c1cc(C(=O)Nc2ccc(=O)n(CC)c2)sc1Cl [Compound 279] | 
4 | 1.41 | 0.375 | O=C(Nc1cc(F)c(=O)n(CC(F)(F)F)c1)c1cc(Cl)c(Cl)[nH]1 [Compound 169] | 
5 | > 50 | > 50 | CCn1cc(NC(=O)c2csc(NC)n2)ccc1=O [Compound 209] | 
6 |  |  | Cn1ccc(-c2cc(NC(=O)c3cc(Cl)c(C(F)(F)F)s3)cn(CC(F)F)c2=O)n1 [Compound 103c] | IC50 [1, 5]: 26 µM; IC50 [2, 6]: 31.3 µM
7 | 5.78 | 1.26 | Cn1c(C(=O)Nc2cc(C#N)c(=O)n(CCF)c2)cc(Cl)c1C#N [Compound 204] | 
8 | > 50 | > 50 | CNc1ncc(C(=O)Nc2cc(F)c(=O)n(CCF)c2)s1 [Compound 228] | 
9 |  |  | C[S+]([O-])c1cc(NC(=O)c2cc(F)c(Cl)s2)cn(CC(F)F)c1=O (stereo not shown) [Compound 8c] | IC50 [1, 5]: > 50 µM; IC50 [2, 6]: > 50 µM
10 | > 50 | > 50 | Cn1ccnc1-c1ccc(C(=O)Nc2cc(F)c(=O)n(CCF)c2)s1 [Compound 316] | 
11 | 5.96 | 2.74 | CCn1cc(NC(=O)c2cc(C#CCO)c(Cl)s2)ccc1=O [Compound 300] | 
12 |  |  | O=C(Nc1cc(F)c(=O)n(CC(F)CO)c1)c1cc(Cl)c(Cl)s1 (stereo not shown) [Compound 50c] | IC50 [1, 5]: 22.1 µM; IC50 [2, 6]: 2.61 µM
13 | 16.6 | 2.72 | O=C(Nc1ccc(=O)n(CC(F)(F)F)c1)c1cc(Cl)c(Cl)[nH]1 [Compound 166] | 
14 | 24.4 | 7.37 | O=C(Nc1cc(NCCN2CCCC2)c(=O)n(CCF)c1)c1cc(Cl)c(Cl)s1 [Compound 261] | 
15 | > 50 | > 50 | O=C(Nc1cc(F)c(=O)n(CCF)c1)c1ccc(-c2nccs2)s1 [Compound 317] | 
16 | > 50 | > 50 | CCn1cc(NC(=O)c2cc(-c3ccn(C)n3)c(Cl)s2)ccc1=O [Compound 272] | 
17 |  |  | CCn1cc(NC(=O)c2ccc(Cl)c(Cl)n2)ccc1=O [Compound 33a] | IC50 [1, 7]: > 50 µM; IC50 [2, 8]: > 50 µM
18 | 45.3 | 48.3 | COc1ccc(Cn2c(C(=O)Nc3ccc(=O)n(CCF)c3)cc(Cl)c2C#N)cc1 [Compound 200] | 
19 |  |  | CCn1cc(NC(=O)c2nc3cc(Cl)c(F)cc3[nH]2)ccc1=O [Compound 32a] | IC50 [1, 7]: > 50 µM; IC50 [2, 8]: > 50 µM
20 | > 50 | > 50 | CCn1cc(NC(=O)c2cc(Cl)c(Cl)s2)cc(OCCN(C)C)c1=O [Compound 121] | 
21 |  |  | O=C(Nc1cc(F)c(=O)n(CCF)c1)N1CCCC1 [Compound 52a] | IC50 [1, 7]: > 50 µM; IC50 [2, 8]: > 50 µM
22 | 2.86 | 0.609 | CCn1cc(NC(=O)c2cc(Cl)c(Cl)[nH]2)cc(F)c1=O [Compound 167] | 
23 |  |  | O=C(Nc1cc(F)c(=O)n(CC(F)F)c1)c1cnc(C(F)(F)F)c(F)c1 [Compound 69a] | IC50 [1, 7]: 8.48 µM; IC50 [2, 8]: 1.53 µM

Row | IC50 [1, 3] [µM] | IC50 [2, 4] [µM] | Structure (SMILES) | further results
24 |  |  | CCn1cc(NC(=O)c2ccc3cn[nH]c3n2)ccc1=O [Compound 38a] | IC50 [1, 7]: > 50 µM; IC50 [2, 8]: > 50 µM
25 |  |  | CC(=O)c1cc(C(=O)Nc2c[nH]c(=O)c(C)c2)ccc1C [Compound 1b] | IC50 [1, 9]: > 50 µM; IC50 [2, 10]: > 50 µM
26 |  |  | CN1CCC(C(=O)Nc2cc(F)c(=O)n(CCF)c2)CC1=O (stereo not shown) [Compound 47a] | IC50 [1, 7]: > 50 µM; IC50 [2, 8]: > 50 µM
27 |  |  | CCn1cc(NC(=O)c2cccc(Cl)c2F)ccc1=O [Compound 10b] | IC50 [1, 9]: > 50 µM; IC50 [2, 10]: > 50 µM
28 |  |  | Cn1ccc(-c2cc(NC(=O)c3sc(C(F)(F)F)cc3Cl)cn(CC(F)F)c2=O)n1 [Compound 19c] | IC50 [1, 5]: > 50 µM; IC50 [2, 6]: > 50 µM
29 | > 50 | > 50 | CS(=O)(=O)c1ccc(C(=O)Nc2cc(F)c(=O)n(CCF)c2)s1 [Compound 288] | 
30 | > 50 | > 50 | CCn1cc(NC(=O)c2nnc(C)s2)ccc1=O [Compound 78] | 
31 | 4.03 | 0.553 | CCn1cc(NC(=O)c2cc(Cl)c(C#N)n2C)cc(Cl)c1=O [Compound 161] | 
32 | 8.08 | 1.93 | O=C(Nc1ccc(=O)n(CCF)c1)c1cc(Cl)n[nH]1 [Compound 154] | 
33 |  |  | N#Cc1sc(C(=O)Nc2cc(F)c(=O)n(CC(F)F)c2)cc1C#CC1COC1 [Compound 93c] | IC50 [1, 5]: > 50 µM; IC50 [2, 6]: > 50 µM
34 | > 50 | > 50 | O=C(Nc1cc(F)c(=O)n(CCF)c1)c1cnc(-n2ccnc2)s1 [Compound 271] | 
35 |  |  | O=C(Nc1cc(F)c(=O)n(CC(F)F)c1)c1nnc(Cl)o1 [Compound 1c] | IC50 [1, 5]: > 50 µM; IC50 [2, 6]: 0.402 µM
36 | > 50 | > 50 | CCn1cc(NC(=O)c2cnc(NC(C)C)s2)ccc1=O [Compound 217] | 
37 | > 50 | > 50 | CCn1cc(NC(=O)c2cc(C)sc2C)ccc1=O [Compound 33] | 
38 | 2.2 | 0.331 | Nc1c(C(=O)Nc2cc(F)c(=O)n(CC(F)F)c2)sc(Cl)c1Cl [Compound 332] | 
39 |  |  | N#Cc1nc(C(=O)Nc2cc(F)c(=O)n(CC(F)F)c2)co1 [Compound 43d] | IC50 ([1]; FL-SMARCA4 IC50): > 50 µM; IC50 [2, 11]: > 50 µM
40 | 31.5 | 17.2 | CCn1cc(NC(=O)c2cc(OC)c(Cl)s2)ccc1=O [Compound 74] | 
41 |  |  | CCn1cc(NC(=O)c2ccc3c(c2)OCO3)ccc1=O [Compound 15a] | IC50 [1, 7]: > 50 µM; IC50 [2, 8]: > 50 µM
42 | > 50 | > 50 | CCn1cc(NC(=O)c2coc(Br)n2)ccc1=O [Compound 35] | 
43 |  |  | CN(C)CC#Cc1cc(NC(=O)c2cc(F)c(Cl)s2)cn(CC(F)F)c1=O [Compound 45d] | IC50 ([1]; FL-SMARCA4 IC50): > 50 µM; IC50 [2, 11]: > 50 µM
44 | > 50 | > 50 | CCn1cc(NC(=O)c2csc(C(N)=O)n2)ccc1=O [Compound 184] | 
45 | 27.4 | 21.6 | O=C(Nc1cc(NCCn2ccnc2)c(=O)n(CCF)c1)c1cc(Cl)c(Cl)s1 [Compound 263] | 
46 | 0.229 | 0.192 | O=C(Nc1cc(Cl)c(=O)n(CC(F)(F)F)c1)c1cnc(Cl)s1 [Compound 104] | 

Row | IC50 [1, 3] [µM] | IC50 [2, 4] [µM] | Structure (SMILES) | further results
47 | > 50 | > 50 | CC(C)Cn1cc(NC(=O)c2cc(Cl)c(Cl)s2)ccc1=O [Compound 76] | 
48 | > 50 | > 50 | CCn1cc(NC(=O)c2cc(Cl)c(Cl)n2Cc2ccccc2)ccc1=O [Compound 57] | 
49 | > 50 | > 50 | CCc1cc(C(=O)Nc2ccc(=O)n(CC)c2)sc1Cl [Compound 91] | 
50 | 0.52 | 0.094 | O=C(Nc1cc(F)c(=O)n(CC(F)F)c1)c1cc(Cl)c(C(F)F)s1 [Compound 296] | 
51 |  |  | Cn1cncc1-c1cc(NC(=O)c2sc(C(F)(F)F)cc2Cl)cn(CC(F)F)c1=O [Compound 38c] | IC50 [1, 5]: > 50 µM; IC50 [2, 6]: > 50 µM
52 | > 50 | 19.5 | CCn1cc(NC(=O)c2ccc(Cl)n2C)ccc1=O [Compound 18] | 
53 | 0.531 | 0.356 | CCn1cc(NC(=O)c2cnc(Cl)s2)cc(Cl)c1=O [Compound 103] | 
54 | > 50 | > 50 | CC(=O)Nc1sc(C(=O)Nc2cc(F)c(=O)n(CCF)c2)cc1Cl [Compound 315] | 
55 | > 50 | > 50 | CCn1cc(NC(=O)c2nc(Br)sc2C)ccc1=O [Compound 36] | 
56 | > 50 | > 50 | CCn1cc(NC(=O)c2nncs2)ccc1=O [Compound 90] | 
57 | > 50 | 16.7 | O=C(Nc1cc(F)c(=O)n(CC(F)(F)F)c1)c1cc(Cl)c(Cl)o1 [Compound 255] | 
58 | > 50 | > 50 | CC(C)Nc1ncc(C(=O)Nc2cc(F)c(=O)n(CCF)c2)s1 [Compound 225] | 
59 | > 50 | > 50 | CCn1cc(NC(=O)c2cc(Cl)c(Cl)n2C(C)C)ccc1=O [Compound 61] | 
60 | > 50 | > 50 | O=C(Nc1cc(F)c(=O)n(CCF)c1)c1cnc(Br)o1 [Compound 252] | 
61 | > 50 | > 50 | CCn1cc(NC(=O)c2cnc(C#N)[nH]2)ccc1=O [Compound 183] | 
62 | 0.383 | 0.0846 | CCn1cc(NC(=O)c2cc(C#N)c(Cl)s2)cc(F)c1=O [Compound 180] | 
63 |  |  | O=C(Nc1cc(-c2cn[nH]c2)c(=O)n(CC(F)F)c1)c1sc(C(F)(F)F)cc1Cl [Compound 20c] | IC50 [1, 5]: > 50 µM; IC50 [2, 6]: > 50 µM
64 | 47.1 | 28.7 | O=C(Nc1cc(F)c(=O)n(CCF)c1)c1cc(Cl)c(C#CCN2CCCC2)s1 [Compound 276] | 
65 | 13.6 | 1.3 | Cn1c(C(=O)Nc2ccc(=O)n(CCF)c2)cc(Cl)c1Cl [Compound 58] | 
66 | 23.7 | 19.1 | O=C(Nc1cc(NCCc2cccnc2)c(=O)n(CCF)c1)c1cc(Cl)c(Cl)s1 [Compound 257] | 
67 |  |  | O=C1CC(C#Cc2cc(C(=O)Nc3cc(F)c(=O)n(CC(F)F)c3)sc2Cl)CCN1 (stereo not shown) [Compound 105c] | IC50 [1, 5]: 0.172 µM; IC50 [2, 6]: 0.0407 µM
68 |  |  | O=C(Nc1cc(F)c(=O)n(CC(F)F)c1)c1cc(C#CC2COC2)c(C2CC2)s1 [Compound 94c] | IC50 [1, 5]: > 50 µM; IC50 [2, 6]: > 50 µM
